{
  "source": "patent US20180346731A1",
  "about": "“Formation of Stable Pyranoanthocyanins, and Uses Thereof as Sources of Natural Color” (Ohio State Innovation Foundation, priority 2017, published 2018)",
  "assay_type_in_all_cases": "physicochemical",
  "key": {"[1]": {"experiment": "Colorimetry (CIEL*c*h*, ΔE2000) of anthocyanin isolates treated with pyruvic acid, 31 days storage", "conditions": "for total color change (ΔE): day 0 vs day 31, Delta E2000; for ΔL* / Δc*: day 0 to day 31; for increase in hue angle: over 31 days", "experimental": "(§1) Prior to dilution, the concentrations of the isolated pigment extracts were determined by the pH differential method for subsequent dilution to known concentrations. The isolates were then diluted to 500 μM (expressed as Cyanidin-3-glucoside equivalents) in pH 2.5 deionized water (previously adjusted with HCl) which contained 0.1% potassium sorbate (w/v) and 0.1% sodium benzoate (w/v) to function as preservative agents during storage. A pH of 2.5 was selected as a compromise of several variables: the flavylium form was predominant, the effect of pKh was minimized, and it is a relevant pH for wines. It has been reported that the pKh's of cy3 gal, cy3xylgal, and cy3xylglugal ranges from 3.01 to 3.26. Working at pH 2.5 largely avoided the effect of different equilibrium forms while also maintaining a pH that is similar to that of wines where these compounds are commonly formed. Control samples of each isolate were prepared and contained no pyruvic acid. For treatments containing pyruvic acid, a previously diluted pyruvic acid standard (pyruvic acid in the same pH 2.5 water containing preservatives) was added to obtain concentrations 100× the molar ratio of anthocyanins (50 mM of pyruvic acid). All treatments were brought to the same final volume by the addition of more pH 2.5 water. Samples were filtered through a 0.2 μm membrane into 1.5 mL glass HPLC vials. Vials were capped and stored in an incubator in the dark at 25° C. for a 31 day duration (Fisher Scientific, Waltham, Mass., U.S.). All treatments were prepared in triplicate.\nColorimetric data of samples was calculated from spectra of samples collected from the plate reader with ColorBySpectra. Absorbance data was obtained and conversion to color values was achieved using the following settings: regular transmission, D65 illuminant, and 10° observer angle. Values reported are in the CIEL*c*h* scale. After storage for 31 days, the mathematical differences in color (ΔE) were calculated according to the CIE-L*a*b* Delta E2000 equation. Colorimetric data of the samples containing pyruvic acid was used to correlate with pyranoanthocyanins formation. Spectral absorbance data of the peaks of the anthocyanins and their respective pyranoanthocyanins were also collected from the PDA during uHPLC analyses and converted to colorimetric data using ColorBySpectra under the settings described above. The spectra was obtained from the time of elution of the target compound and then standardized to an absorbance of 1.0 at λvis-max."}, "[2]": {"experiment": "Anthocyanin survival of control treatments at pH 2.5 (uHPLC AUC 500-520 nm)", "conditions": "pH 2.5 acidified water, no pyruvic acid, 25° C., day 31", "experimental": "FIG. 10: Pyranoanthocyanin yield for anthocyanins (500 μM) subjected to pyruvic acid treatment (×100 M ratio) and anthocyanin survival of control treatments at pH 2.5 acidified water at day 7, 14, and 31. Yield defined as (AUC500-520 nm of PACN at tn/AUC500-520 nm of ACN @t0)*100. Survival defined as (AUC500-520 nm of ACN at tn/AUC500-520 nm of ACN @ t0)*100. Values shown are means (n=3) and bars represent standard deviation.\nA uHPLC system (Shimadzu Nexera-i LC-2040C, Maryland, U.S.) coupled with tandem MS (Shimadzu LCMS-8040, Maryland, U.S.) was used in evaluating initial anthocyanin purity and monitoring changes in anthocyanins with and without pyruvic acid treatment over time. A 0.4 mL/min flow rate was used on a Pinnacle DB (Restek Corporation, Bellefonte, Pa.) C18 Column (1.9 μm particle size, 50×2.1 mm length). The column oven was set at 40° C. The following gradient of solvent A (4.5% formic acid) and B (100% acetonitrile) was used: 0% B for the first minute, ramped to 15% B by 10 min. This method was effective for separation of the formed pyranoanthocyanin from anthocyanin for all isolates except cy3rut which coeluted with the formed pyranoanthocyanin. This was observed through MS-MS data. […]\nQuantification of pigments was conducted on day 0, 3, 7, 14, and 31 using a standard curve of cyanidin-3-glucoside (Sigma Aldrich, St. Louis, Mo., U.S.) run under the same conditions used for isolates. Molar absorptivities of anthocyanins and carboxypyranoanthocyanidins have been reported as being relatively similar and were thought to provide a basis of confidence in using AUC500-520 nm as a quantitative measure of pyranoanthocyanin yield.\nPrior to dilution, the concentrations of the isolated pigment extracts were determined by the pH differential method for subsequent dilution to known concentrations. The isolates were then diluted to 500 μM (expressed as Cyanidin-3-glucoside equivalents) in pH 2.5 deionized water (previously adjusted with HCl) which contained 0.1% potassium sorbate (w/v) and 0.1% sodium benzoate (w/v) to function as preservative agents during storage. […]"}, "[3]": {"experiment": "UV-Vis spectra of anthocyanin isolates treated with pyruvic acid, 31 days storage", "conditions": "for decrease in maximum absorbance: 500 μM, pyruvic acid ×100 M ratio, pH 2.5, 25° C., after 31 days", "experimental": "as §1\nAbsorbance spectra of anthocyanin isolates subjected to pyruvic acid treatment was collected using a SpectraMax 190 microplate reader (Molecular Devices, Sunnyvale, Calif., U.S.). Sample aliquots (75 μL) were loaded in a 96-well plate (poly-D-lysine coated polystyrene). Samples were evaluated from 380 to 780 nm in 1 nm intervals. The blank consisted of the same acidified pH 2.5 water solution used to dilute pigment samples. Spectra were collected on day 0, 7, 14, and 31. Spectrophotometric data of the samples was used to correlate with pyranoanthocyanins formation."}},
  "data": [
    {"smiles": "OCC1O[C@@H](Oc2cc3c(O)cc(O)cc3[o+]c2-c2ccc(O)c(O)c2)C(O[C@@H]2OC(CO)[C@@H](O)C(O)[C@H]2O)C(O)[C@@H]1O", "note": "(stereo partly drawn) [cy3soph, cyanidin-3-sophoroside]", "values": [
      {"measurement": "total color change (ΔE)", "setting": "[1]", "value": 9.2}
    ]},
    {"smiles": "Oc1cc(O)c2cc(O[C@@H]3OC[C@H](O)[C@H](O)[C@H]3O)c(-c3ccc(O)c(O)c3)[o+]c2c1", "note": "[cy3ara, cyanidin-3-arabinoside]", "values": [
      {"measurement": "ΔL*", "setting": "[1]", "value": 10.2},
      {"measurement": "Δc*", "setting": "[1]", "value": "−42.5"},
      {"measurement": "total color change (ΔE)", "setting": "[1]", "value": 16.4},
      {"measurement": "anthocyanin survival of control treatment", "setting": "[2]", "value": 66, "unit": "%"},
      {"measurement": "decrease in maximum absorbance", "setting": "[3]", "value": 71, "unit": "%"},
      {"measurement": "shift of λvis-max of solution", "setting": "[3]; pyruvic acid treated, pH 2.5, by day 31", "value": "bathochromic shift"}
    ]},
    {"smiles": "OC[C@H]1O[C@@H](Oc2cc(O)cc3[o+]c(-c4ccc(O)c(O)c4)c(O[C@@H]4O[C@H](CO)[C@@H](O)[C@H](O)[C@H]4O[C@@H]4O[C@H](CO)[C@@H](O)[C@H](O)[C@H]4O)cc23)[C@H](O)[C@@H](O)[C@@H]1O", "note": "[cy3soph5glu, cyanidin-3-sophoroside-5-glucoside]", "values": [
      {"measurement": "total color change (ΔE)", "setting": "[1]", "value": 9.7},
      {"measurement": "initial L*", "setting": "[1]; pH 2.5, day 0", "value": 87.5}
    ]},
    {"smiles": "OC[C@H]1O[C@@H](OC[C@H]2O[C@@H](Oc3cc4c(O)cc(O)cc4[o+]c3-c3ccc(O)c(O)c3)[C@H](O[C@@H]3OC[C@@H](O)[C@H](O)[C@H]3O)[C@@H](O)[C@H]2O)[C@H](O)[C@@H](O)[C@@H]1O", "note": "[cy3xylglugal, cyanidin-3-(xylosylglucosyl) galactoside]", "values": [
      {"measurement": "total color change (ΔE)", "setting": "[1]", "value": 8.3}
    ]},
    {"smiles": "OC[C@H]1O[C@@H](Oc2cc3c(O)cc(O)cc3[o+]c2-c2ccc(O)c(O)c2)[C@H](O)[C@@H](O)[C@@H]1O", "note": "[cy3glu, cyanidin-3-glucoside]", "values": [
      {"measurement": "total color change (ΔE)", "setting": "[1]", "value": 7.2},
      {"measurement": "anthocyanin survival of control treatment", "setting": "[2]", "value": 49, "unit": "%"}
    ]},
    {"smiles": "OC[C@H]1O[C@@H](OC[C@H]2O[C@@H](Oc3cc4c(O)cc(O)cc4[o+]c3-c3ccc(O)c(O)c3)[C@H](O)[C@@H](O)[C@H]2O)[C@H](O)[C@@H](O)[C@@H]1O", "note": "[cy3glugal, cyanidin-3-(glucosyl)galactoside]", "values": [
      {"measurement": "ΔL*", "setting": "[1]", "value": 1.8},
      {"measurement": "total color change (ΔE)", "setting": "[1]", "value": 3.6},
      {"measurement": "increase in hue angle", "setting": "[1]", "value": 0.5, "unit": "°"},
      {"measurement": "decrease in maximum absorbance", "setting": "[3]", "value": 26, "unit": "%"}
    ]},
    {"smiles": "C[C@@H]1O[C@@H](OC[C@H]2O[C@@H](Oc3cc4c(O)cc(O)cc4[o+]c3-c3ccc(O)c(O)c3)[C@H](O)[C@@H](O)[C@@H]2O)[C@H](O)[C@H](O)[C@H]1O", "note": "[cy3rut, cyanidin-3-rutinoside]", "values": [
      {"measurement": "Δc*", "setting": "[1]", "value": "−9.7"},
      {"measurement": "total color change (ΔE)", "setting": "[1]", "value": 4.9},
      {"measurement": "increase in hue angle", "setting": "[1]", "value": 1.1, "unit": "°"},
      {"measurement": "decrease in maximum absorbance", "setting": "[3]", "value": 30, "unit": "%"}
    ]},
    {"smiles": "OC[C@H]1O[C@@H](Oc2cc3c(O)cc(O)cc3[o+]c2-c2ccc(O)c(O)c2)[C@H](O[C@@H]2OC[C@@H](O)[C@H](O)[C@H]2O)[C@@H](O)[C@H]1O", "note": "[cy3xylgal, cyanidin-3-(xylosyl)galactoside]", "values": [
      {"measurement": "total color change (ΔE)", "setting": "[1]", "value": 7.8}
    ]}
  ]
}
